Test results published in patent US9750757B2, “Methods of prevention or treatment for pathologic thrombosis or inflammation” (THOMAS JEFFERSON UNIVERSITY, priority 2013, dated 2017).
Entries after “also recorded” stand apart in the source; their conditions may differ.

Legend:
[1] = tested on: platelet rich plasma (PRP); assay: Light transmission aggregometry in platelet rich plasma, agonist-induced maximal aggregation (PRAX1); format: cell-based, human; settings: for Mean percent maximal aggregation, Black: PRP of black subjects; for Mean percent maximal aggregation, White: PRP of white subjects
Experimental: (1) Houston studies. A complete blood count and mean platelet volume were obtained using an ABX Micros 60 CS (Horiba ABX, Irvine, Calif., USA). Using light transmission aggregometry, maximal percent aggregation and slope of aggregation at 10 min in platelet rich plasma (PRP) treated with: 0.5 mg/ml arachidonic acid, 4 μM ADP, 1 μM and 2 μM PAR1 activating peptide (PAR1-AP), and 50 μM and 75 μM PAR4 activating peptide (PAR4-AP) were measured. (2) Philadelphia studies. Light transmission aggregometry of washed platelets was used to assess thrombin-induced platelet aggregation without or with a 2 min pre-incubation with 20 μM BMS-200261 (BMS, PAR1-specific antagonist) (Quinton et al., J. Biol. Chem. 2004, 279, 18434-18439). A difference in the efficacy of the PAR1 inhibitor was observed between the pilot and replicate studies, but validation of inhibitor activity was confirmed for both studies (FIG. 1B inset and FIG. 7E). For assessment of calcium mobilization, platelets were re-calcified to a final concentration of 1 mM followed by pre-incubation with Fluo-4 AM for 10 min. The platelets were then stimulated with PAR4-AP and calcium mobilization was measured using the Accuri C6 flow cytometer (Yeung et al., Mol. Pharmacol. 2012, 81, 420-430). In both Houston and Philadelphia, technical variation was minimized by use of the same highly-trained technicians, same lots of reagents and same instruments throughout the duration of the study. Because multiple concentrations were used to activate PAR1 and PAR4 to induce platelet aggregation, an integrated score was developed that combined these values to determine a single index that represented each individual's agonist response. This score correlated strongly with standard assessment of maximal percent aggregation, but inclusion of slope (which was a minor contributor to the overall score, and highly related to maximal aggregation) allowed distinction among platelets with the same maximal aggregation value. This score was highly reproducible in 10 subjects studied weekly for three or four weeks.

[2] = tested on: platelets, PAR4-AP-induced aggregation; assay: PAR4-AP-induced aggregation of washed platelets (light transmission aggregometry); format: cell-based; settings: washed human platelets incubated 30 min with inhibitor; sub-threshold concentrations of PAR4-AP
Experimental: (§1) The indicated concentrations of LDN-193,188 were incubated for 30 min with washed platelets and stimulated with sub-threshold concentrations of activating PAR peptides. […] Biol. Chem. 2004, 279, 18434-18439). […] For assessment of calcium mobilization, platelets were re-calcified to a final concentration of 1 mM followed by pre-incubation with Fluo-4 AM for 10 min. The platelets were then stimulated with PAR4-AP and calcium mobilization was measured using the Accuri C6 flow cytometer (Yeung et al., Mol. Pharmacol. 2012, 81, 420-430). In both Houston and Philadelphia, technical variation was minimized by use of the same highly-trained technicians, same lots of reagents and same instruments throughout the duration of the study. […] This score correlated strongly with standard assessment of maximal percent aggregation, but inclusion of slope (which was a minor contributor to the overall score, and highly related to maximal aggregation) allowed distinction among platelets with the same maximal aggregation value. This score was highly reproducible in 10 subjects studied weekly for three or four weeks.

[3] = tested on: platelets, PAR1-AP-induced aggregation; assay: PAR1-AP-induced aggregation of washed platelets (light transmission aggregometry); format: cell-based; settings: washed human platelets incubated 30 min with inhibitor; sub-threshold concentrations of PAR1-AP
Experimental: as §1

[4] = molecular target: T1, PC-TP (Homo sapiens, UniProt Q9UKL6); settings: Shishova et al. 2011; cited from earlier work
T1 sequence (Q9UKL6 1-214): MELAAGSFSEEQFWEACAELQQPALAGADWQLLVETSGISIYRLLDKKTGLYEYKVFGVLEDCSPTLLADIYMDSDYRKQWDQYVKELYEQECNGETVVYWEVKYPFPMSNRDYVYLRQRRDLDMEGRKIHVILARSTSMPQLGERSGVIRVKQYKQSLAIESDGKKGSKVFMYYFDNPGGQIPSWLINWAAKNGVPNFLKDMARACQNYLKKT

[5] = molecular target: T1, PC-TP; settings: Wagel et al. 2008; cited from earlier work

Which “Fold difference (Black/White)” value ([1]; 500 μg/ml AA) does the source give for `CCCCC/C=C\C/C=C\C/C=C\C/C=C\CCCC(=O)O` [AA, arachidonic acid] here?
The value was 0.99 fold.

What about the “Mean percent maximal aggregation, Black” value ([1]; 500 μg/ml AA) of the same compound?
The value was 86.57%.

And the “Mean percent maximal aggregation, White” value ([1]; 500 μg/ml AA)?
The value was 87.21%.

With `Cc1cc(C)nc(NS(=O)(=O)c2ccc(NC(=O)NC(=O)c3ccc(Cl)cc3Cl)cc2)n1` [LDN-193,188, 2,4-dichloro-N-(4-(N-(4,6-dimethylpyrimidin-2-yl)sulfamoyl)phenylcarbamoyl)-benzamide] as the compound, how does the “Effect on PAR4-AP-induced platelet aggregation” value [2] read?
The value was “prevented aggregation; also recorded: blocked; also recorded: does block”.

What about the “Effect on PAR1-AP-induced platelet aggregation” value [3] of the same compound?
The value was “does not block”.

And the “Displacement of phosphatidylcholine from PC-TP” value [4]?
The value was “displaces phosphatidylcholine from the lipid binding pocket”.

What about the “Thermal stability of PC-TP” value [4] of the same compound?
Its value is “increases the thermal stability”.

And the “Phosphatidylcholine transfer activity of PC-TP” value [5]?
The value was “inhibitor”.

Which “Fold difference (Black/White)” value ([1]; 4 μM ADP) does the source give for `Nc1ncnc2c1ncn2[C@@H]1O[C@H](COP(=O)(O)OP(=O)(O)O)[C@@H](O)[C@H]1O` [ADP] here?
The value was 0.91 fold.

And the “Mean percent maximal aggregation, Black” value ([1]; 4 μM ADP)?
The value was 40.89%.

What about the “Mean percent maximal aggregation, White” value ([1]; 4 μM ADP) of the same compound?
Its value is 45.04%.
